Test results as given in patent US20250276116A1, “METHODS OF […] DUE TO EXTR[…] OXYGENATION” (Tufts Medical Center, Inc., priority 2021, published 2025).
“Also recorded” adds a separate entry of the source.

Key:
[1] = test system: ischemia-reperfusion injury (AMI, LAD occlusion); assay: Swine AMI model: intracoronary elamipretide before VA-ECMO, reperfusion delayed 30 minutes, then 180 minutes of reperfusion; assay type: in vivo
Procedure: To begin exploring whether stabilizing CL activity can limit myocardial infarct size during VA-ECMO support for AMI, we employed an over-the-wire coronary angioplasty balloon to delivery elamipretide into the area at risk while maintaining occlusion of the LAD. We treated adult male swine with a single IC injection of either elamipretide (0.05 ug/kg/minute IC over 10 minutes) or vehicle prior to initiating VA-ECMO and then delayed coronary reperfusion for 30 minutes, thereby allowing the drug to reach the area at risk and stabilize CL. Elamipretide was continued as an IV infusion (0.05 ug/kg/minute) during 180 minutes of reperfusion. […] Elamipretide dosing was based on prior reports (Kloner et al., J. Am. Heart Assoc. 1(3):e001644, 2012; Gibson et al., Eur. Heart J. 37(16):1296-1303, 2016).

[2] = test system: LV infarct scar after AMI; assay: Late-term outcomes in swine 28 days after AMI with VA-ECMO, with or without cardioprotective drug; assay type: in vivo; conditions: at 30 days; VA-ECMO + elamipretide vs reperfusion alone or VA-ECMO alone before reperfusion; FIG. 6
Procedure: To explore late-term outcomes after VA-ECMO with or without cardioprotective drug therapy in AMI, we decannulated, recovered, and monitored swine for 28 days after peripheral cannulation for VA-ECMO support. Adult male swine were subjected to coronary occlusion followed by reperfusion alone or VA-ECMO before reperfusion for 180 minutes. In a separate group, swine were treated with a cardioprotective agent before initiation of VA-ECMO with a 30-minute delay to reperfusion. After 28 days, we identified for the first time that compared to reperfusion alone, VA-ECMO increases infarct scar size and impairs LV function after AMI (FIGS. 5A and 5B). […] These findings support our central hypothesis that VA-ECMO promotes LV scar after AMI and further that treatment with a cardioprotective agent reduces LV scar size 30 days after AMI, which may have broad reaching implications for any patient with acute myocardial infarction or patients at risk of developing cardiac impairment while receiving VA-ECMO. Broad groups of patients may be treated using this approach including, e.g., all AMI patients and all patients treated with VA-ECMO. Indications include, for example, cardiogenic shock, heart failure, lung failure, myocarditis, trauma, and arrhythmia. […] (FIG. 6).

[3] = test system: cardiolipin; assay: Mitochondrial cardiolipin in the infarct zone, swine IRI with ECMO / EC-Pella (FIGS. 9C-9D); assay type: in vivo; conditions: to a similar degree as pre-emptive ECPella
Procedure: Ischemia-reperfusion injury (IRI) was induced in adult swine via percutaneous occlusion of the left anterior descending artery (LAD) for 90 minutes, followed by activation of either ECMO alone for 30 minutes or EC-Pella for 45 minutes with persistent LAD occlusion. All groups underwent 180 minutes of reperfusion (n=4-6/group). To study whether the sequence of device activation impacts infarct size, we compared activation of ECMO alone for 30 minutes followed by simultaneous Impella CP for 15 minutes (Bailout EC-Pella) versus Impella CP activation for 30 minutes followed by simultaneous ECMO for 15 minutes (Pre-emptive EC-Pella) before reperfusion. LV hemodynamics and ventriculo-arterial (VA) coupling were assessed.
Compared to IRI and ECMO alone, EC-Pella decreased PVA when applied as pre-emptive ECPella but not Bailout ECPella (FIG. 7). Both EC-Pella configurations decreased infarct size (FIG. 8A), increased cardioprotective signaling via the reperfusion injury salvage kinase pathway (FIG. 8B), and reduced apoptosis and pro-apoptotic signaling (FIG. 8C). Pre-emptive, but not bailout, ECPella preserved mitochondrial […] tafazzin levels (FIGS. 9A-B), increased mitochondrial cardiolipin levels (FIG. 9C), and reduced the ratio of immature: mature cardiolipin (MLCL: CL ratio; FIG. 9D) within the infarct zone compared to ECMO alone.

[4] = test system: anterior ST-segment elevation myocardial infarction; conditions: IV elamipretide given before reperfusion; cited from earlier work
[5] = elamipretide plus VA-ECMO, FIG. 4C

## D-Arg-2′,6′-Dmt-Lys-Phe-NH2 [elamipretide]
[1]; adult male swine, 0.05 ug/kg/minute IC over 10 minutes before VA-ECMO, reperfusion delayed 30 minutes, IV infusion during 180 minutes reperfusion, vs vehicle
  reduction of infarct size compared to IRI plus VA-ECMO support: 70%
[1]; adult male swine, elamipretide IC before VA-ECMO, reperfusion delayed 30 minutes
  reduction of infarct size compared to IRI alone: 55%
[1]; elamipretide before initiation of VA-ECMO
  infarct size compared to reperfusion without VA-ECMO (in words): significantly reduces infarct size
[1]; elamipretide plus VA-ECMO, FIG. 4B
  MLCL:CL ratio in the infarct zone: decreased
[1]; [5]
  H202 levels in the infarct zone: decreased
  mitochondrial protease activity in the infarct zone: decreased
[1]; elamipretide plus VA-ECMO, FIG. 4E
  ETC complex function: improved ETC complex function
[1]; elamipretide treatment without VA-ECMO, FIG. 4A
  infarct size compared to IRI alone, elamipretide without VA-ECMO: failed to reduce infarct size; also recorded: did not reduce infarct size
[2]
  infarct (LV) scar size: reduced infarct scar size; also recorded: can limit LV scar size
[3]; FIG. 9C
  mitochondrial cardiolipin levels in the infarct zone: increases cardiolipin
[3]; FIG. 9D
  mono-lysl cardiolipin: mature cardiolipin (MLCL:CL) ratio in the infarct zone: reduces
[4]
  infarct size in humans (EMBRACE-STEMI Trial): failed to reduce infarct size
